Assay [1] concerns the target T1, GST-HAB1 with 6×-His-PYR1^MANDI (Arabidopsis thaliana, UniProt O49686, F108A/F159L/K59R/S122G/V81I/Y58H).
T1 construct: made in house; host or cells: E. coli BL21[DE3]pLysS (receptor)
The experiment in a line: PP2C enzyme inhibition assay (4-methylumbelliferyl-phosphate). Type of assay: biochemical. Conditions: PYR1^MANDI with GST-HAB1, GST-ABI1, GST-ABI2. Here is the method: We next characterized the effects of recombinant PYR1^MANDI on PP2C activity using the fluorogenic substrate 4-methylumbelliferyl-phosphate. Recombinant receptor and PP2C proteins were prepared as described above and used to examine PP2C inactivation in response to mandipropamid or ABA. Enzyme inhibition assays were conducted using the following assay conditions: 100 nM 6×-His-PYR1^MANDI, 50 nM GST-PP2C, 100 mM Tris-OAc (pH 7.9), 100 mM NaCl, 1 mM MnCl2, 1% β-mercaptoethanol. […] The three ABA-regulated clade A PP2Cs, GST-HAB1, GST-ABI1 and GST-ABI2 were each tested under the same enzyme conditions in separate reactions. The assays were conducted at a variety of mandipropamid or ABA concentrations so that IC50 values could be determined. […] Thus, the PYR1^MANDI receptor is highly sensitive to activation by mandipropamid and interacts with multiple clade A PP2Cs in response to mandipropamid. This high level of sensitivity is consistent with the yeast two hybrid results described above in which a detectable interaction between PYR1^MANDI and HAB1 could be observed at concentrations as low as 2 nM (see Table 1). We note that the yeast two hybrid reporter systems requires only a small percentage of PYR1^MANDI receptors to bind HAB1 for an interaction signal and is therefore a potentially more sensitive indicator than in vitro assays. […] Thus these in vitro assays confirm that PYR1^MANDI is selectively activated by mandipropamid.

A further assay deals with PYR1-OX. The experiment in a line: qRT-PCR of ABA-regulated genes RD29B and RAB18. Conditions: 50 μM ABA, 8 hours. Type of assay: in vivo, Arabidopsis. Here is the method:
One of ABA's major effects is to regulate gene expression. We therefore examined the effects of ABA and mandipropamid on gene expression in wild type, PYR-OX, MDP1 and MPD2 transgenic plants. Seed of the wild type or transgenic lines were surface sterilized, stratified for 4 days at 4° C. and then grown for 10 days at room temperature under continuous illumination in a liquid culture consisting of 0.5×MS salts and 0.5% sucrose and grown with continuous shaking to provide aeration. After 10 days, the culture solutions were adjusted to contain 50 μM ABA, 2 μM mandipropamid, or a mock treatment. After 8 hours exposure to the test compounds RNA was isolated using RNAEasy™ Plant RNA isolation kit (Qiagen, USA) and treated with DNAse. The purified RNA was utilized in qRT-PCR reactions using primers for the ABA-regulated genes RD29B or RAB18. Biological triplicate and triple technical replicate measurements were conducted. To perform qRT-PCR analyses, cDNA was generated from 5 μg of total RNA using superscript reverse transcriptase III (Invitrogen, USA), in reaction mixture containing a oligo-dT20 (SEQ ID NO:110) and a ribosomal RNA primer. Real-time quantitative PCR analysis was performed by ΔCt method of relative quantification. PCR mixtures contained cDNA, Maxima® SYBR green/Fluorescein qPCR master mix (Fermentas, USA) and 330 nM of each gene-specific primer. RT-PCRs were conducted using a BioRad CFX96 Real-Time PCR System and the data were processed using the BioRad CFX Manager software (BioRad, USA). PCRs were performed under the following cycling conditions: 3 min at 95° C., followed by 40 cycles of 10 sec at 95° C., 10 sec at 55° C. and 30 sec at 72° C. in 96-well optical reaction plates (BioRad, USA). The specificity of amplicons was verified by melting curve (disassociation) analysis (60-95° C.) after 40 cycles. Input cDNA was normalized using an internal control gene, PEX4 (AT5G25760).
Background: In qPCR the cycle at which signal appears reflects the starting amount.

A further assay deals with T2, PYR1 K59R A89I (Arabidopsis thaliana, UniProt O49686, A89I/K59R).
T2 construct: expressed in transfected cells; host or cells: S. cerevisiae Y190 yeast two-hybrid reporter strain
T2 sequence (O49686 whole entry K59R/A89I): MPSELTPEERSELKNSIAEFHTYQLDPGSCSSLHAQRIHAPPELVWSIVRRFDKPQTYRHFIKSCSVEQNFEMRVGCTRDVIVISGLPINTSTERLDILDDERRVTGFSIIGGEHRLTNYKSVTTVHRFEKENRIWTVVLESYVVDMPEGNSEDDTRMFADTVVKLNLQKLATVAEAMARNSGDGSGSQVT
T2 sequence (Q9CAJ0 23-511, further chain): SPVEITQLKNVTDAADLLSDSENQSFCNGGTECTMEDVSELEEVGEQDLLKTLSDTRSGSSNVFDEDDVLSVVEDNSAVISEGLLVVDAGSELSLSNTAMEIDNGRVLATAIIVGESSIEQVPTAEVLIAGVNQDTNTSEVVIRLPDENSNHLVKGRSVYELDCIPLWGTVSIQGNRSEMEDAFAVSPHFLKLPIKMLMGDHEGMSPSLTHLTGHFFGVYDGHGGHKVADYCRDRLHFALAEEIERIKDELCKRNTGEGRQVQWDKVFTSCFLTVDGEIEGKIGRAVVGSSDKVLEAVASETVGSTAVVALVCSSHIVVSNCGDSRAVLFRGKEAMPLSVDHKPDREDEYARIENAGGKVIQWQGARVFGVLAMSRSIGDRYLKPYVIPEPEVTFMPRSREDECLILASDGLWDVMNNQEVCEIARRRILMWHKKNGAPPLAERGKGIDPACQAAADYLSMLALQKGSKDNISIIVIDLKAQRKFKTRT
The experiment in a line: Y2H Pocket Library Screen (HAB1, X-gal). Type of assay: cell-based. Here is the method:
(§1) The set of 475 mutant plasmids were individually transformed into the Y190 yeast two hybrid reporter strain co-transformed with pACT-HAB1, as previously described (Park et al., 2009). The yeast strains generated were arrayed into 96-well plates yielding what we refer to as the “pocket library”. The pocket library strains were spotted onto agar plates containing selective synthetic dextrose (minus Leu & Trp) medium that was supplemented with a single test compound at 100 μM. The pocket library strains were separately tested for responsiveness to the following compounds: dichlobenil, benzothiadiazole, mandipropamid, fludioxonil, and benoxacor. After incubating test plates at 30° C. for two days, colonies were chloroform lysed and stained to reveal β-galactosidase expression levels, using previously described methods (Park et al., 2009). Mutants displaying responsiveness to the test compound, if present, were identified by virtue of X-gal staining and then subjected to subsequent optimization efforts. Using this approach we identified mutations that conferred detectable sensitivity to the compounds tested (see entries labeled “Pocket Library Screens” in Table 1).

The target of a further assay is T3, PYR1 K59R A89W (Arabidopsis thaliana, UniProt O49686, A89W/K59R).
T3 construct: expressed in transfected cells; host or cells: S. cerevisiae Y190 yeast two-hybrid reporter strain
T3 sequence (O49686 whole entry K59R/A89W): as the sequence (O49686 whole entry K59R/A89I) above, with I89W counted along it
T3 sequence (Q9CAJ0 23-511, further chain): as the sequence (Q9CAJ0 23-511, further chain) above
Kind of assay: Y2H Pocket Library Screen (HAB1, X-gal). Type of assay: cell-based. Here is the method:
as §1

In another assay the target is T4, PYR1 K59R F159V (Arabidopsis thaliana, UniProt O49686, F159V/K59R).
T4 construct: expressed in transfected cells; host or cells: S. cerevisiae Y190
T4 sequence (O49686 whole entry K59R/F159V): as the sequence (O49686 whole entry K59R/A89I) above, with I89A, F159V counted along it
T4 sequence (Q9CAJ0 23-511, further chain): as the sequence (Q9CAJ0 23-511, further chain) above
The experiment in a line: Y2H Pocket Library Screen (HAB1, X-gal). It is filed as cell-based. Here is the method: as §1

A further assay has as its target T5, PYR1 K59R L87F (Arabidopsis thaliana, UniProt O49686, K59R/L87F).
T5 construct: expressed in transfected cells; host or cells: S. cerevisiae Y190 yeast two-hybrid reporter strain
The experiment in a line: Y2H Pocket Library Screen (HAB1, X-gal). It is filed as cell-based. Here is the method:
as §1

The target in the next assay is T6, PYR1 K59R M158C (Arabidopsis thaliana, UniProt O49686, K59R/M158C).
T6 construct: expressed in transfected cells; host or cells: S. cerevisiae Y190 two-hybrid reporter strain
T6 sequence (O49686 whole entry K59R/M158C): as the sequence (O49686 whole entry K59R/A89I) above, with I89A, M158C counted along it
T6 sequence (Q9CAJ0 23-511, further chain): as the sequence (Q9CAJ0 23-511, further chain) above
Kind of assay: Y2H Pocket Library Screen (HAB1, X-gal). Type of assay: cell-based. As for the experimental part: as §1

In a further assay the target is T7, PYR1 K59R M158T (Arabidopsis thaliana, UniProt O49686, K59R/M158T).
T7 construct: expressed in transfected cells; host or cells: S. cerevisiae Y190 two-hybrid reporter strain
T7 sequence (Q9CAJ0 23-511): as the sequence (Q9CAJ0 23-511, further chain) above
T7 sequence (O49686 whole entry K59R/M158T): as the sequence (O49686 whole entry K59R/A89I) above, with I89A, M158T counted along it
The experiment in a line: Y2H Pocket Library Screen (HAB1, X-gal). It is filed as cell-based. Here is the method:
as §1

A further assay deals with T8, PYR1 K59R M158V (Arabidopsis thaliana, UniProt O49686, K59R/M158V).
T8 construct: expressed in transfected cells; host or cells: S. cerevisiae Y190 two-hybrid reporter strain
T8 sequence (O49686 whole entry K59R/M158V): as the sequence (O49686 whole entry K59R/A89I) above, with I89A, M158V counted along it
T8 sequence (Q9CAJ0 23-511, further chain): as the sequence (Q9CAJ0 23-511, further chain) above
The experiment in a line: Y2H Pocket Library Screen (HAB1, X-gal). Type of assay: cell-based. As for the experimental part:
as §1

The target in another assay is T9, PYR1 K59R S92I (Arabidopsis thaliana, UniProt O49686, K59R/S92I).
T9 construct: expressed in transfected cells; host or cells: S. cerevisiae Y190 yeast two-hybrid reporter strain
T9 sequence (O49686 whole entry K59R/S92I): as the sequence (O49686 whole entry K59R/A89I) above, with I89A, S92I counted along it
T9 sequence (Q9CAJ0 23-511, further chain): as the sequence (Q9CAJ0 23-511, further chain) above
Kind of assay: Y2H Pocket Library Screen (HAB1, X-gal). Type of assay: cell-based. As for the experimental part:
as §1

The target of another assay is T10, PYR1 K59R S92W (Arabidopsis thaliana, UniProt O49686, K59R/S92W).
T10 construct: expressed in transfected cells; host or cells: S. cerevisiae Y190 yeast two-hybrid reporter strain
T10 sequence (Q9CAJ0 23-511): as the sequence (Q9CAJ0 23-511, further chain) above
T10 sequence (O49686 whole entry K59R/S92W): as the sequence (O49686 whole entry K59R/A89I) above, with I89A, S92W counted along it
The experiment in a line: Y2H Pocket Library Screen (HAB1, X-gal). Type of assay: cell-based. Here is the method: as §1

The target of a further assay is T11, PYR1 K59R T162W (Arabidopsis thaliana, UniProt O49686, K59R/T162W).
T11 construct: expressed in transfected cells; host or cells: S. cerevisiae Y190
T11 sequence (O49686 whole entry K59R/T162W): as the sequence (O49686 whole entry K59R/A89I) above, with I89A, T162W counted along it
T11 sequence (Q9CAJ0 23-511, further chain): as the sequence (Q9CAJ0 23-511, further chain) above
The experiment in a line: Y2H Pocket Library Screen (HAB1, X-gal). It is filed as cell-based. As for the experimental part:
as §1

In another assay the target is T12, PYR1 K59R A89I S92I (Arabidopsis thaliana, UniProt O49686, A89I/K59R/S92I).
T12 construct: expressed in transfected cells; host or cells: S. cerevisiae Y190 two-hybrid reporter strain
T12 sequence (O49686 whole entry K59R/A89I/S92I): as the sequence (O49686 whole entry K59R/A89I) above, with S92I counted along it
T12 sequence (Q9CAJ0 23-511, further chain): as the sequence (Q9CAJ0 23-511, further chain) above
The experiment in a line: Y2H Combinatorial Mutagenesis Screen I (HAB1, X-gal). It is filed as cell-based. The text has this:
(§2) This screening approach yielded mutants at ligand contacting residues that alter sensitivity to specific ligands. We reasoned that receptor sensitivity could be improved by systematically constructing combinations of the best mutant variants identified in the first round of screening. To test this, we constructed mutant combinations using the strongest mutations identified for mandipropamid, benzothiadiazole, benoxacor or fludioxonil sensitivity. The mutations selected for combinatorial mutagenesis are listed in bold type in Table 1; The mutant combinations were constructed using the QuickChange Lightning Multi Site-Directed PCR Mutagenesis kit (Agilent, USA) using pBD-PYR1^K59R template DNA and mutagenic primers, essentially as previously described (Mosquna et al., 2011). The mutant combinations were sequence validated, introduced into the pACT-HAB1 Y190 reporter strain and then tested for responsiveness to a range of compound concentrations (100, 50, 25, 10, 1, 0.2, 0.1 or 0 μM each test compound). These efforts yielded double mutant receptor variants with improved sensitivity for the 4 compound/receptor pairs examined (see entries labeled “Combinatorial Mutagenesis Screen I” in Table 1).

The next assay has as its target T13, PYR1 K59R A89I S92W (Arabidopsis thaliana, UniProt O49686, A89I/K59R/S92W).
T13 construct: expressed in transfected cells; host or cells: S. cerevisiae Y190 two-hybrid reporter strain
The assay is described as above. Type of assay: cell-based.
From the text: as §2

T13 sequence (Q9CAJ0 23-511): as the sequence (Q9CAJ0 23-511, further chain) above
T13 sequence (O49686 whole entry K59R/A89I/S92W): as the sequence (O49686 whole entry K59R/A89I) above, with S92W counted along it
T1 sequence (Q9CAJ0 23-511): as the sequence (Q9CAJ0 23-511, further chain) above
T1 sequence (O49686 whole entry Y58H/K59R/V81I/F108A/S122G/F159L): as the sequence (O49686 whole entry K59R/A89I) above, with Y58H, V81I, I89A, F108A, S122G, F159L counted along it
T5 sequence (O49686 whole entry K59R/L87F): as the sequence (O49686 whole entry K59R/A89I) above, with L87F, I89A counted along it
T5 sequence (Q9CAJ0 23-511, further chain): as the sequence (Q9CAJ0 23-511, further chain) above

Consider `CC1=CC(=O)CC(C)(C)[C@@]1(O)/C=C/C(C)=C\C(=O)O` [ABA, abscisic acid], for which the “activation of the receptors by ABA” value in assay [1] is “not appreciably activated”. In addition, in the assay on PYR1-OX, the “levels of RAB18 and RD29 induced by ABA, compared with wild type” value is recorded as “higher”.

For `CC1COc2ccccc2N1C(=O)C(Cl)Cl` (centres unmarked) [Benoxacor, benoxacor], the Threshold on PYR1 K59R A89I, at PYR1 K59R A89W, at PYR1 K59R F159V, at PYR1 K59R L87F, on PYR1 K59R M158C and on PYR1 K59R M158T was 100 µM throughout. Further, the Threshold came to 100 µM on PYR1 K59R M158V; 50 µM at PYR1 K59R S92I; 50 µM at PYR1 K59R S92W; 50 µM at PYR1 K59R T162W; 50 µM at PYR1 K59R A89I S92I; 50 µM at PYR1 K59R A89I S92W.

The values above are taken from patent US9738902B2, “Modified PYR/PYL receptors activated by ligands” (priority 2013, dated 2017).
